Laboratory results taken from publication PMC7617869, “Molecular glues that inhibit deubiquitylase activity and inflammatory signaling” (Nature Structural & Molecular Biology, 2025).
Values joined by “and” are separate entries in the source; they are usually repeats but may differ in a detail not shown here. Equal entries are not always repeated.

How the values were obtained:
Type in all cases: cell-based, human
[1] = system: composite ISG score in SSc PBMCs; assay: SSc PBMC composite ISG score (CXCL10, IFIT1, ISG15, MX1); conditions: for CXCL10 / IFIT1 / ISG15 / MX1: sheet Ext. 9e, SSc PBMCs, 20 values per compound (one per patient sample); for composite ISG score: unstimulated SSc PBMCs (n = 20), 2 µM, 16 h, relative to AP-5-145
Experimental: (§1) PBMCs in vitro experiments
(§2) Peripheral blood mononuclear cells (PBMCs) from healthy and SSc donors were separated using density gradient method (Leucosep™, Greiner Bio-One International) from EDTA anticoagulated peripheral blood; isolated cells were washed twice by PBS. PBMCs were then incubated in RPMI1640 […]
For healthy PBMCs, cells were stimulated with 20 ng/mL of IFN (+/- compounds or DMSO). For SSc PBMCs, cells were in basal conditions with no additional IFN stimulation. Cells were centrifuged at 300 g for 10 minutes. […]
RNA was extracted from cell pellets using TRIzol™ (ThermoFisher
Scientific, Waltham, MA) and processed using Quick-RNA Miniprep Kit (Zymo Research) as per the manufacturer’s instruction.
(§3) For Type I IFN signalling analysis, the human IFN I RT2 Profiler PCR Array (Qiagen, PAMM-016ZE) was performed on available RNA from healthy (n=3) and SSc (n=9) donors. RNA was converted to cDNA using RT2 First Strand Kit (Qiagen). Next, the cDNA was mixed with RT2 SYBR Green Mastermix (Qiagen, Venlo). Successful PCR performance was confirmed by assay tests for genomic DNA contamination, RNA sample quality, as well as single melt curve determination and <35 Ct for each gene, leading to validated gene expression of 67 genes. Relative expression for each gene was determined, firstly by ∆CT calculated using the geometric mean of 4 housekeeping genes (ACTB, GAPDH, HPRT1, RPLP0), followed by 2^(-∆CT), and expressed as fold change to control, according to manufacturer’s guidance. IFN2α-induced ISGs in healthy donors were determined using a Student’s t-test (two-tail distribution and equal variances) on the triplicate fold change in 2^(-ΔCT) values between […]
(§4) donors). Heatmaps were generated using the “pheatmap” function in R (v4.0.2) and RStudio (v1.3.1093) applying row scaling to standardise the expression data across samples (R core team 2020.
(§5) R Foundation for Statistical Computing). The IFN2α inducible genes determined in healthy donors […]
(§6) 171-C. To account for Type I IFN signalling heterogeneity across samples, the mean 2^(-∆CT) for each […]
(§7) relative gene expression, illustrated as a fold change and visualised in log2. The Type I IFN signalling array data for the patient samples is included in Source Data Figure 6, Extended Data Fig. 9.

[2] = system: IFNAR1 ubiquitylation in MCF10A cells; assay: TUBE pull-down of ubiquitylated IFNAR1 in MCF10A cells; parameters: Blot Mean, Background substracted: unit not given here; conditions: for IFNAR1 ubiquitylation: MCF10A, IFNα2 50 ng/mL, 5 µM, compared to DMSO, AP-5-145 and FX-171-A
Experimental: Tandem ubiquitin binding entity (TUBE) pull -down assay
The TUBE pull -down experiment was performed according to the manufacturer’s (UM401: TUBE 1 Agarose; LifeSensors) protocol with modifications. MCF10A cells (~20 x10 6) were pre -treated with the […] inhibitor panel (5 µM) or DMSO vehicle control for 1 hour followed by addition of recombinant IFNα2 (50 ng/m L, 592702, BioLegend). Following 1 hour incubation with IFNα2, cells were lysed in cell lysis buffer (50 mM Tris -HCl, pH 7.5, 0.15 M NaCl, 1 mM EDTA, 1% NP -40, 10% glycerol, 10 mM […]
NEM). Cell lysates were clarified by centrifugation at 15,000 g for 10 minutes at 4 °C. Clarified lysates were pre-cleared with control uncoupled agarose beads (UM400, LifeSensors) for 30 minutes on a rotator at 4 °C followed by centrifugation at 5,000 g for 2 minutes. Equal amount of pre-cleared lysates from individual samples were incubated with 20 µL Agarose-TUBE beads (pre-equilibrated with 1X Tris-buffered saline (TBS)) overnight on a rotator at 4 °C. Beads were collected by centrifugation at 5,000 g for 2 minutes at RT followed by four stringent washes with 1X TBST (TBS, 0.1% Tween-20). TUBE-pulldown proteins were eluted by boiling Agarose-TUBE beads in 2X LDS sample buffer supplemented with […] DTT for 15 minutes. Eluted proteins were resolved on NuPAGE™ 4–12% Bis–Tris gel followed by Western blotting using anti-IFNAR1 antibody (ab124764, Abcam).
as §1, §2
For healthy PBMCs, cells were stimulated with 20 ng/mL of IFN (+/- compounds or DMSO). For SSc PBMCs, cells were in basal conditions with no additional IFN stimulation. Cells were centrifuged at 300 g for 10 minutes. Supernatant was removed and subjected to R&D Systems DY266 Human CXCL10/IP-10 DuoSet ELISA (Biotechne) in duplicates, according to manufacturer’s guidance. Concentration of CXCL10 was determined according to a 4-parameter logistic regression standard curve. RNA was extracted from cell pellets using TRIzol™ (ThermoFisher Scientific, Waltham, MA) and processed using Quick-RNA Miniprep Kit (Zymo Research) as per the manufacturer’s instruction.
as §3, §4, §5, §6, §7

[3] = system: IFNAR1 surface levels in THP-1 cells; assay: THP-1 IFNAR1 surface levels (FACS); conditions: for IFNAR1 surface levels (Fig. 5h): IFN + compound, No IFN = 100; for IFNAR1 surface levels: THP-1, hIFNα2 25 ng/ml, 4 μM, 16 h
Experimental: THP-1 in vitro experiments
THP-1-DualTM cells (InvivoGen), derived from a human monocytic cell line, isolated from a patient with acute monocytic leukaemia, were cultured as per manufacturer’s guidance. Cells were seeded at 1x10^6 cells/mL in RPMI1640 media containing 10% fetal bovine serum (FBS), 1% penicillin-streptomycin (PS) (Gibco Laboratories) with DMSO (0.1%) (control) or in media containing JMS-175- […]
ng/mL) (Merck Life Science), ODN 2216 (1 µM) (Miltenyi Biotec), or Poly:IC (1 µg/mL) (InvivoGen).
Tofacitinib (Cambridge Biosciences) at 0.4 µM was used for comparison against a known JAK inhibitor.
Cells were centrifuged at 300 g for 5 minutes. Supernatant was removed and subjected to simultaneous study of the NF -κB pathway, by monitoring the activity of secreted alkaline phosphatase reporter (SEAP), and the IRF pathway, by assessing the activity o f a secreted Lucia luciferase using QUANTI - Blue ™ Solution and QUANTI -Luc™ 4 Lucia/Gaussia (InvivoGen), respectively, as per manufacturer’s instructions. Pelleted cells were used for FACS analysis using IFNα/β R1 APC-conjugated antibody or isotype control (Biotechne, FAB245A and IC002A), or unstained staining procedure with and without Zombie GreenTM (Biolegend). Samples were analysed using CytoFlex LX (Beckman) (50,000 live cells per condition). Median fluorescence intensity for APC channel gated on single cell live cells was analysed and compared as a percentage to control (no stimulation condition). […]

[4] = TUBE pull-down IFNAR1 blot densitometry, biological replicates 1-3

Cn1cc(NC(=O)c2c(Cl)cccc2Cl)c(C(=O)NC2CCN(C(=O)c3c(Cl)cccc3Cl)CC2)n1 [AP-5-145]
CXCL10 [1]: 1.751 and 0.25 and 0.7382 and 0.8655 and 0.7967 and 0.4021 and 0.5617 and 1.22 and 0.6479 and 2.776 and 1.1866 and 0.5017 and 0.551 and 0.4363 and 0.9229 and 0.6553 and 1.25 and 0.7409 and 0.339 and 0.3688 | IFIT1 [1]: 0.6337 and 0.5474 and 0.8263 and 0.6524 and 0.6203 and 0.9706 and 0.5382 and 1.166 and 0.8191 and 0.9287 and 1.423 and 0.5364 and 0.8639 and 0.4363 and 0.9229 and 1.253 and 1.322 and 1.329 and 0.8934 and 0.7188 | ISG15 [1]: 1.377 and 0.6237 and 1.266 and 0.7354 and 0.9639 and 0.9802 and 0.5935 and 1.766 and 0.659 and 0.6409 and 0.6943 and 0.6974 and 1.099 and 0.4464 and 1.007 and 1.459 and 1.622 and 0.4684 and 1.547 and 1.209 | MX1 [1]: 0.9424 and 0.9381 and 0.6518 and 0.8276 and 0.6072 and 1.137 and 0.7908 and 1.689 and 0.9753 and 0.9313 and 1.364 and 0.7737 and 0.8832 and 0.4676 and 0.7628 and 0.9541 and 1.254 and 0.9134 and 1.016 and 0.8618 | Fold Change ([2]; TUBE pull-down IFNAR1 blot densitometry, relative to DMSO = 1, biological replicates 1-3): 1.205 and 1.413 and 1.158 | Blot Mean, Background substracted [2, 4]: 48.742 and 43.008 and 72.446 | IFNAR1 surface levels (Fig. 5h) [3]: 65.8984 and 82.4668 and 66.4812 | IFNAR1 surface levels [3]: no significant reduction

O=C(NC1C2CNCC21)c1nn(C(=O)c2c(Cl)cccc2Cl)cc1NC(=O)c1c(Cl)cccc1Cl (centres unmarked) [FX-171-C]
CXCL10 [1]: 1.514 and 0.251 and 1.066 and 0.167 and 0.5332 and 0.7533 and 1.612 and 0.6702 and 0.5368 and 1.6313 and 0.1436 and 0.6323 and 0.4166 and 0.1288 and 0.6936 and 0.646 and 0.6924 and 0.6022 and 0.5701 and 0.08999 | IFIT1 [1]: 0.2868 and 0.437 and 1.363 and 0.3735 and 0.4257 and 0.6696 and 0.8252 and 0.3503 and 0.5958 and 0.5382 and 1.388 and 0.256 and 0.9671 and 0.1288 and 0.6936 and 1.317 and 1.359 and 0.9945 and 0.8122 and 0.05751 | ISG15 [1]: 0.9038 and 0.4123 and 1.522 and 0.5454 and 1.252 and 0.967 and 0.791 and 0.6842 and 0.9244 and 0.2949 and 0.1516 and 1.006 and 0.9237 and 0.1709 and 0.7851 and 1.799 and 0.9132 and 0.323 and 0.9506 and 0.1287 | MX1 [1]: 0.4428 and 0.9634 and 1.459 and 0.4711 and 0.7459 and 1.024 and 0.9419 and 0.919 and 0.9953 and 1.074 and 1.146 and 0.5685 and 0.9032 and 0.1777 and 0.6324 and 0.9421 and 1.363 and 0.7344 and 1.47 and 0.4028 | composite ISG score [1]: reduced the composite ISG score | IFNAR1 ubiquitylation [2]: elevated levels of IFNAR1 ubiquitylation | Blot Mean, Background substracted [2, 4]: 52.149 and 49.341 and 95.856 | IFNAR1 surface levels (Fig. 5h) [3]: 56.2651 and 56.964 and 56.0526 | IFNAR1 surface levels [3]: reduction in IFNAR1 surface levels

O=C(NC1CCNCC1)c1nn(C(=O)c2c(Cl)cccc2Cl)cc1NC(=O)c1c(Cl)cccc1Cl [JMS-175-2]
CXCL10 [1]: 0.2536 and 3.414 and 0.2313 and 0.3588 and 1.2272 and 0.4193 and 1.168 and 0.8338 and 0.6055 and 1.239 and 0.3406 and 0.08106 and 0.000123 and 0.3625 and 0.05611 and 0.1808 and 1.381 and 0.5771 and 0.5421 and 0.1347 | IFIT1 [1]: 0.2366 and 1.382 and 0.8014 and 0.1818 and 0.6785 and 0.4193 and 1.168 and 0.7189 and 1.817 and 1.319 and 1.1 and 0.2301 and 0.1676 and 0.4861 and 0.2758 and 0.6203 and 0.8038 and 0.5004 and 0.169 and 0.3186 | ISG15 [1]: 0.4563 and 0.8641 and 0.6274 and 0.4056 and 0.5557 and 0.616 and 1.197 and 0.8342 and 1.6 and 0.5253 and 1.319 and 0.4936 and 0.2916 and 0.7218 and 0.3961 and 0.8921 and 0.9105 and 0.5615 and 0.4313 and 0.6786 | MX1 [1]: 0.223 and 0.8929 and 1.04 and 0.5006 and 0.9521 and 0.6554 and 1.256 and 0.9444 and 1.592 and 1.073 and 1.238 and 0.494 and 0.2991 and 0.4305 and 0.1662 and 0.4949 and 1.066 and 0.6875 and 0.4778 and 0.5729 | composite ISG score [1]: reduced the composite ISG score | IFNAR1 ubiquitylation [2]: elevated levels of IFNAR1 ubiquitylation | Blot Mean, Background substracted [2, 4]: 63.299 and 57.607 and 102.609 | IFNAR1 surface levels (Fig. 5h) [3]: 48.4567 and 45.7565 and 33.0649 | IFNAR1 surface levels [3]: reduction in IFNAR1 surface levels
